According to US6914064B2, “1,4-Disubstituted piperazine derivatives useful as uro-selective α1-adrenoceptor blockers” (Ranbaxy Laboratories Limited, priority 2000, dated 2005):

Key:
α1A adrenoceptor = target: T1, α1A adrenoceptor (Rattus norvegicus, UniProt P43140); assay: Receptor binding assay, displacement of [3H]prazosin, rat submaxillary membranes; settings: for Ki: [3H]prazosin displacement, rat submaxillary membranes, read-out: α1A (Rat submaxillary) Ki; for Selectivity α1B/α1A: ratio of Ki α1B (rat liver) / α1A (rat submaxillary)
T1 construct: from tissue; host or cells: rat submaxillary gland membranes
T1 sequence (P43140 1-466): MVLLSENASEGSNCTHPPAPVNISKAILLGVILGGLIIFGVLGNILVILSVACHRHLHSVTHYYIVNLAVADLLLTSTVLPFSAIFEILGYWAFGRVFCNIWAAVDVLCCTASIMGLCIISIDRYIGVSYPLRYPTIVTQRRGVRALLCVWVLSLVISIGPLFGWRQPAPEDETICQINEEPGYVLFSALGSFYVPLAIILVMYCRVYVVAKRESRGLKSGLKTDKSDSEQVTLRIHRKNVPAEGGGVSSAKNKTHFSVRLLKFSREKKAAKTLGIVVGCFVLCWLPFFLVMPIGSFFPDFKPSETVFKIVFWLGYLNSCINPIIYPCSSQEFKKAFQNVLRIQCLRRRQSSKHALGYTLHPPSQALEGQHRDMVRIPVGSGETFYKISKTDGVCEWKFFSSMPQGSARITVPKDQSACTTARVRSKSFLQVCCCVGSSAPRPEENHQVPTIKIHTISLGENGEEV
How it was run: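 Rat submaxillary gland membranes (150-250 μg protein) incubated 1 h at 24-25° C in Tris HCl 50 mM, EDTA 5 mM, pH 7.4. Non-specific binding set with 300 nM prazosin; filtration then counting of bound radioactivity. IC50 and Kd from non-linear curve fitting.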

[1] = target: T2, α1A adrenoceptor (prostate) (Rattus norvegicus, UniProt P43140); assay: In vitro functional study, antagonism of phenylepinephrine-induced contraction of prostate; type: biochemical; settings: for Selectivity α1A/α1B / Selectivity α1A/α1D: functional assays, from pKB values; for Kb: prostate, phenylepinephrine, tested compound at 0.1, 1 and 10 mM, read-out: α Adrenoceptor Subtype (pKB) α1A (converted)
T2 construct: from tissue; host or cells: isolated prostate tissue
T2 sequence (P43140 1-466): T1 sequence (P43140 1-466)
From the text: In order to study selectivity of action of these compounds towards different α-adrenoceptor subtypes, the ability of these compounds to antagonise α1-adrenoceptor agonist induced contractile response on aorta (α1Dprostate (α1A and spleen (α1B was studied. Aorta and spleen tissues were isolated from urethane anaesthetised (1.5 gm/kg) male wistar rats. Isolated tissues were mounted in organ bath containing Krebs Henseleit buffer of following composition (mM): NaCl 118; KCl 4.7; CaCl2 2.5; MgSO4. 7H2O 1.2; NaHCO3 25; KH2PO41.2; glucose 11.5. Buffer was maintained at 37° C. and aereated with a mixture of 95% O2 and 5% CO2. A resting tension of 2 g (aorta) or 1 g (spleen and prostate)was applied to tissues. Contractile response was monitored using a force displacement transducer and recorded on chart recorders. Tissues were allowed to equilibrate for 2 hours. At the end of equilibration period, concentration response curves to norepinephrine (aorta) and phenylepinephrine (spleen and prostate) were obtained in absence and presence of tested compound (at concentration of 0.1,1 and 10 mM). Antagonist affinity was calculated and expressed as pKB vales in Table II.

[2] = system: phenylephrine response on mean arterial pressure (MAP) and intraurethral pressure (IUP); assay: In vivo uroselectivity study in conscious beagle dogs; settings: for Area Under Curve IUP / Area Under Curve MAP: percent change of phenylephrine (16 μg/kg i.v.) response, 0.5-24 hours
From the text: In order to assess the uroselectivity in vivo, the effects of these compounds were studied on mean arterial pressure (MAP) and intraurethral pressure (IUP) in conscious beagle dogs as per the method of Brune et. al. (Pharmacol 1996, 53:356-368). Briefly, male dogs were instrumented for chronic continuous measurement of arterial blood pressure by implanting a telemetry transmitter (TL11M2-D70-PCT, Data Sci. International, St. Paul, Minn. USA) into the femoral artery, two weeks prior to the study. During the recovery period, the animal was acclimatized to stay in the sling restraint. On the day of testing, overnight fasted animal was placed in the sling restraint. A Swan-Ganz. Balloon tipped catheter was introduced into the urethra at the level of prostate and the balloon was inflated (Brune. et. al. 1996). After recording the base line readings, effect of 16 μg/kg, phenylephrine (i.v.) on MAP and IUP was recorded. The response of phenylephrine to MAP and IUP were recorded at 0.5, 1, 2, 3, 4, 6, 9 and 24 hours after the oral administration of vehicle or the test drug. The changes in MAP was recorded on line using Dataquest Software (Data Sci. International. St. Paul, Minn. USA) and IUP was recorded on a Grass Polygraph (Model 7, Grass Instruments, USA). The change in phenylephrine response on MAP and IUP administration after the test drug administration was calculated as percent change of that of control values. Area under curve was calculated and the ratio of the values for MAP and IUP was used for calculating the uroselectivity (Table III)

Structure (SMILES) | Ki (α1A adrenoceptor) | Selectivity α1B/α1A (α1A adrenoceptor) | Selectivity α1A/α1B [1] | Selectivity α1A/α1D [1] | Kb [1] | Uroselectivity Ratio IUP/MAP ([2]; 100 μg/kg p.o.) | Area Under Curve IUP ([2]; 100 μg/kg p.o.) | Area Under Curve MAP ([2]; 100 μg/kg p.o.) | Uroselectivity Ratio IUP/MAP ([2]; 10 μg/kg p.o.) | Area Under Curve IUP ([2]; 10 μg/kg p.o.) | Area Under Curve MAP ([2]; 10 μg/kg p.o.) | Uroselectivity Ratio IUP/MAP ([2]; 3 μg/kg p.o.) | Area Under Curve IUP ([2]; 3 μg/kg p.o.) | Area Under Curve MAP ([2]; 3 μg/kg p.o.)
COc1ccccc1N1CCN(CCCN2C(=O)C3CC=CCC3C2=O)CC1.Cl (centres unmarked) [Compound 01, 2-[3-{4-(2-Methoxyphenyl)piperazin-1-yl}propyl]-3a,4,7,7a-tetrahydro-1H-isoindole-1,3(2H)-dione hydrochloride] | 0.8 nM | 91 | 41 | 4 | 0.537 nM | 5.54 | 514 | 93 |  |  |  |  |  | 
CCOc1ccccc1N1CCN(CCCN2C(=O)C3CC=CCC3C2=O)CC1.Cl (centres unmarked) [Compound 11, 2-[3-{4-(2-Ethoxyphenyl)piperazin-1-yl}propyl]-3a,4,7,7a-tetrahydro-1H-isoindole-1,3(2H)-dione hydrochloride] | 0.13 nM | 146 | 47 | 15 | 0.112 nM |  |  |  | 66 | 661 | 10 |  |  | 
CC(C)Oc1ccccc1N1CCN(CCCN2C(=O)C3CC=CCC3C2=O)CC1.Cl (centres unmarked) [Compound 23, 2-[3-{4-(2-Isopropoxyphenyl)piperazin-1-yl}propyl]-3a,4,7,7a-tetrahydro-1H-isoindole-1,3(2H)-dione hydrochloride] | 0.16 nM | 175 | 170 | 1 | 0.115 nM |  |  |  |  |  |  | 4 | 790 | 197
CCCOc1ccccc1N1CCN(CCCN2C(=O)C3CC=CCC3C2=O)CC1.Cl (centres unmarked) [Compound 24, 2-[3-{4-(2-Propoxyphenyl)piperazin-1-yl}propyl]-3a,4,7,7a-tetrahydro-1H-isoindole-1,3(2H)-dione hydrochloride] | 0.24 nM | 117 | 355 | 13 | 0.0398 nM |  |  |  |  |  |  | 7.6 | 522 | 68
